Experiment [1] concerns the target human recombinant IRAK4 protein (Homo sapiens (Human), UniProt Q9NWZ3). The experiment in a line: IRAK4 enzyme assay (mass spectrometry readout). The format is biochemical. The conditions noted are these: 3 mM ATP, 0.2 nM enzyme; geometric mean of at least n=2, * single experiment. The method, then:
Potency of IRAK4 Inhibitor Compounds in IRAK4 Enzyme Assay
The inhibitory activity of compounds against IRAK4 were determined in an enzymatic assay using mass spectrometry readout. Ten point half-log compound concentration response curves, with a top concentration of 1 μM or 10 μM, were generated from 10 mM stocks of compound solubilized in DMSO using an Echo 655 (Labcyte Inc) and added to 384 well assay plates (Greiner #781280). To the assay plates, 10 μL of human recombinant IRAK4 protein (Life Technologies #PV4002) diluted to a final concentration of 0.2 nM in assay buffer (50 mM Tris-HCl pH 7.4, 10 mM MgCl, 5 mM glutathione, 0.01% BSA, 3 mM ATP) was added. The enzyme was incubated with the compounds at room temperature for 15 minutes before a peptide substrate ([…], Innovagen custom synthesis, 10 mM in DMSO) was added to each well to a final concentration of 10 μM using an Echo 655 (Labcyte Inc). After two hours at room temperature, the reaction was stopped with 90 μL of 0.4% formic acid (Merck #33015). The unphosphorylated and phosphorylated peptide were measured by LC-MS/MS on a Waters TQ-S mass spectrometer. Peaks were integrated using the TargetLynx software and the ratios between phosphorylated and unphosphorylated peptides were calculated. Curves were fitted and compound potencies determined in Genedata Screener 15 (Genedata AG). Data presented are the geometric mean of at least n=2, or as denoted by an * are obtained from a single experiment.

For experiment [2], the target named is IRAK4 auto-phosphorylation (Homo sapiens (Human), UniProt Q9NWZ3). The experiment in a line: IRAK4 phosphorylation cell assay in IL-1β-stimulated Karpas-299 cells. The format is cell-based. To be noted: IL-1β 22.7 ng/mL, pIRAK4 (Thr345/Ser346), geometric mean of at least 2 experiments. The method, then: IRAK4 Phosphorylation Cell Assay
Sequence of IRAK4 auto-phosphorylation (Q9NWZ3 whole entry): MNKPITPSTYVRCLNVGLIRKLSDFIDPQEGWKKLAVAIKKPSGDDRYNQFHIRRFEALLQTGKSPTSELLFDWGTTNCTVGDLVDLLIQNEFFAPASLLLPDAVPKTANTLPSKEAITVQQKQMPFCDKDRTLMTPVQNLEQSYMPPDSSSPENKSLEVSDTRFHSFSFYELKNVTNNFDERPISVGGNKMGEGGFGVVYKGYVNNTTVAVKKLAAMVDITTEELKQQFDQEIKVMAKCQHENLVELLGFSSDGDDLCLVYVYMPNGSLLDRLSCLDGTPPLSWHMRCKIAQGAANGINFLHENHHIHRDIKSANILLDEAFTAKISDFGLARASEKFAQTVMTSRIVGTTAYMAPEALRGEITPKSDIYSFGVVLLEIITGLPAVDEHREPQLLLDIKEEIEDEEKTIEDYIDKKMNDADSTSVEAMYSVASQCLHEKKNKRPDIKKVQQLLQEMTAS
The activation of IRAK4 by TLR or IL-1R ligands leads to IRAK4 auto-phosphorylation, which can be prevented by IRAK4 kinase inhibitors. The effect of IRAK4 inhibitor compounds on IRAK4 auto-phosphorylation was assessed in IL-1β-stimulated Karpas-299 cells as a measurement of cellular potency. Karpas-299 cells were cultured in RPMI 1640 (Gibco 61870-010) containing 10% FBS (Gibco #10270). Cells were plated at 2×10^4 cells per well in poly-D-lysine coated 384 well plates (Corning #356663) to which compounds had been added at various concentrations (10 point half log dose response with a final top concentration of 30 μM) using an Echo 655 (Labcyte Inc). Cells were centrifuged (250 g, 4 mins), incubated at 37° C. for 1 h, then stimulated with 22.7 ng/mL recombinant IL-1β (R&D Systems, #201-LB-025) at 37° C. for 10 mins, followed by fixation in 4% paraformaldehyde for 10 mins and permeabilization in ice-cold 70% MeOH for 30 mins. Cells were washed twice with phosphate-buffered saline (PBS) on a BlueWasher (BlueCatBio) then blocked with PBS containing 10% FBS for 20 mins. Blocking solution was removed with a BlueWasher and cells were stained with anti-pIRAK4 (Thr345/Ser346) (CST, #11927, 1:400) in blocking buffer with 0.05% Tween-20 for 1 h, then washed twice with PBS containing 0.05% Tween-20 on a BlueWasher, followed by staining with a Alexa 647-conjugated secondary anti-rabbit IgG antibody (CST, #4414, 1:2,000) and Hoechst 33342 (Sigma, 1:2,000) in blocking buffer with 0.05% Tween-20 for 30 mins. Finally, the cells were washed twice with PBS containing 0.05% Tween-20 and imaged on an ImageXpress Micro (Molecular Devices) with a 10× air objective using the appropriate filters. Images were analysed in Columbus (PerkinElmer) and the fluorescence intensity per cell from the secondary antibody was quantified. The quantified data were analysed in Genedata Screener 15 (Genedata AG). […] IC50 values are the geometric mean of at least 2 experiments.

What is called IC50 is the concentration needed to halve the response being measured.

Where only a bound is given, the exact number is not on record here.

Sequence of human recombinant IRAK4 protein (Q9NWZ3 whole entry): as above

For the molecule `COc1cc2nn([C@H]3CC[C@@H](NC(=O)C4CC4)CC3)cc2cc1C(=O)Nc1cnn2cnccc12` [Example 27, 2-((1s,4s)-4-(Cyclopropanecarboxamido)cyclohexyl)-6-methoxy-N-(pyrazolo[1,5-c]pyrimidin-3-yl)-2H-indazole-5-carboxamide], the IC50 in experiment [1] was found to be 4.4 nM; in experiment [2] it was 67 nM.
In the same order, the values of `COc1cc2nn([C@H]3CC[C@H](N(C)C(=O)[C@@H]4CC[C@@H](O)C4)CC3)cc2cc1C(=O)Nc1cnn2cccnc12` (relative stereo) [Example 113] are 0.7 nM and 23 nM.
Regarding `COc1cc2nn(C3CCC4(CC3)COC(=O)N4C)cc2cc1C(=O)Nc1cnc2cccnn12` (single isomer, unassigned) [Example 74, N-(Imidazo[1,2-b]pyridazin-3-yl)-6-methoxy-2-(1-methyl-2-oxo-3-oxa-1-azaspiro[4.5]decan-8-yl)-2H-indazole-5-carboxamide], the values for the IC50 in experiment [1] and in experiment [2] were 2.7 nM and 79 nM, respectively.
Take `CC(=O)N1CC2(CC[C@@H](n3cc4cc(C(=O)Nc5cnn6cccnc56)c(OC5CC5)cc4n3)[C@H](C)C2)C1` (single isomer, unassigned) [Example 28]: the IC50 is 3 nM in experiment [1] and 161 nM in experiment [2].
Regarding `COc1cc2nn([C@H]3CC[C@H](N(C)C(=O)C[C@H](C)O)CC3)cc2cc1C(=O)Nc1cnn2cccnc12` [Example 110, 2-((1S,4r)-4-((S)-3-Hydroxy-N-methylbutanamido)cyclohexyl)-6-methoxy-N-(pyrazolo[1,5-a]pyrimidin-3-yl)-2H-indazole-5-carboxamide], the values for the half-inhibitory concentration (IC50) in experiment [1] and in experiment [2] were 0.9 nM and 16 nM, respectively.
For the molecule `COc1cc2nn([C@@H]3CC[C@]4(CC(=O)N(C)C4)C[C@H]3C)cc2cc1C(=O)Nc1cnc2cccnn12` (relative stereo) [Example 70, rel-2-(5R,7R,8R)-2,7-Dimethyl-3-oxo-2-azaspiro[4.5]decan-8-yl)-N-(imidazo[1,2-b]pyridazin-3-yl)-6-methoxy-2H-indazole-5-carboxamide or rel-2-(5R,7S,8S)-2,7-Dimethyl-3-oxo-2-azaspiro[4.5]decan-8-yl)-N-(imidazo[1,2-b]pyridazin-3-yl)-6-methoxy-2H-indazole-5-carboxamide], the 50% inhibitory concentration (IC50) in experiment [1] was determined as 0.4 nM; in experiment [2], 9 nM.
In the same order, the values of `COc1cc2nn([C@H]3CC[C@@]4(CCC(=O)N4C)CC3)cc2cc1C(=O)Nc1cnc2cccnn12` [Example 1, N-(Imidazo[1,2-b]pyridazin-3-yl)-6-methoxy-2-((5r,8r)-1-methyl-2-oxo-1-azaspiro[4.5]decan-8-yl)-2H-indazole-5-carboxamide] are 0.1 nM and 5 nM.
As for `COc1cc2nn([C@H]3CCC[C@@](C)(O)C3)cc2cc1C(=O)Nc1cnn2cccnc12` (single isomer, unassigned) [Example 51], the IC50 in experiment [1] is 2.8 nM; in experiment [2], 46 nM.
As for `COc1cc2nn([C@H]3CC[C@H](C(=O)N(C)C)CC3)cc2cc1C(=O)Nc1cnc2cccnn12` [Example 4, 2-((1r,4r)-4-(Dimethylcarbamoyl)cyclohexyl)-N-(imidazo[1,2-b]pyridazin-3-yl)-6-methoxy-2H-indazole-5-carboxamide], the values for the IC50 in experiment [1] and in experiment [2] were less than 0.3 nM and 17 nM, respectively.
As to `COc1cc2nn([C@H]3CC[C@H](N(C)C(=O)[C@@H]4CC[C@@H](O)C4)CC3)cc2cc1C(=O)Nc1cnn2cccnc12` (relative stereo) [Example 112], the IC50 was 0.7 nM in experiment [1] and 21 nM in experiment [2].
`CC1(O)CC2(CCC(n3cc4cc(C(=O)Nc5cnn6cccnc56)c(OC5CC5)cc4n3)CC2)C1` (single isomer, unassigned) [Example 16, 6-Cyclopropoxy-2-(2-hydroxy-2-methylspiro[3.5]nonan-7-yl)-N-(pyrazolo[1,5-a]pyrimidin-3-yl)-2H-indazole-5-carboxamide]: the figures for the IC50 in experiment [1] and in experiment [2] were 0.6 nM and 77 nM, respectively.
`COc1cc2nn([C@H]3CCC[C@@](C)(O)C3)cc2cc1C(=O)Nc1cnn2cccnc12` (single isomer, unassigned) [Example 50]: the results for the 50% inhibitory concentration (IC50) in experiment [1] and in experiment [2] were 3.4 nM and 84 nM, respectively.
Take `COc1cc2nn([C@H]3CCC[C@](C)(O)C3)cc2cc1C(=O)Nc1cnn2cccnc12` (single isomer, unassigned) [Example 52]: the IC50 in experiment [1] was 5.5 nM; in experiment [2] it was 96 nM.
For `COc1cc2nn([C@H]3CC[C@@H](N(C)C(C)=O)CC3)cc2cc1C(=O)Nc1cnn2cnccc12` [Example 24, 6-Methoxy-2-((1s,4s)-4-(N-methylacetamido)cyclohexyl)-N-(pyrazolo[1,5-c]pyrimidin-3-yl)-2H-indazole-5-carboxamide], in that order: 83.1 nM and 668 nM.
In the case of `COc1cc2nn([C@H]3CCC[C@](C)(O)C3)cc2cc1C(=O)Nc1cnn2cccnc12` (single isomer, unassigned) [Example 53], the IC50 is 3.5 nM in experiment [1] and 49 nM in experiment [2].
Turning to `COc1cc2nn([C@@H]3CC[C@H](O)[C@H](C)C3)cc2cc1C(=O)Nc1cnc2cccnn12` (single isomer, unassigned) [Example 77], the results for the half-inhibitory concentration (IC50) in experiment [1] and in experiment [2] were 0.7 nM and 14 nM, respectively.
Turning to `CO[C@H]1C[C@H](Oc2cc3nn(C4CCC5(CC4)CN(C(C)=O)C5)cc3cc2C(=O)Nc2cnc3cccnn23)C1` [Example 100, 2-(2-Acetyl-2-azaspiro[3.5]nonan-7-yl)-N-(imidazo[1,2-b]pyridazin-3-yl)-6-((1r,3r)-3-methoxycyclobutoxy)-2H-indazole-5-carboxamide], the IC50 in experiment [1] was less than 0.03 nM; in experiment [2], 6 nM.
For the molecule `COc1cc2nn([C@H]3CC[C@@H](C(=O)N(C)C)CC3)cc2cc1C(=O)Nc1cnc2cccnn12` [Example 3, 2-((1s,4s)-4-(Dimethylcarbamoyl)cyclohexyl)-N-(imidazo[1,2-b]pyridazin-3-yl)-6-methoxy-2H-indazole-5-carboxamide], the half-inhibitory concentration (IC50) worked out at 8.5 nM in experiment [1] and 272 nM in experiment [2].
With `COc1cc2nn([C@@H]3CC[C@H](O)[C@@H](C)C3)cc2cc1C(=O)Nc1cnc2cccnn12` (single isomer, unassigned) [Example 83], the IC50 in experiment [1] was determined as 2.1 nM; in experiment [2], 34 nM.
For the molecule `COc1cc2nn(C3CCC4(CC3)CC(C)(O)C4)cc2cc1C(=O)Nc1cnc2cccnn12` (single isomer, unassigned) [Example 6, 2-(2-Hydroxy-2-methylspiro[3.5]nonan-7-yl)-N-(imidazo[1,2-b]pyridazin-3-yl)-6-methoxy-2H-indazole-5-carboxamide], the IC50 in experiment [1] was determined as 0.7 nM; in experiment [2], 44 nM.
For `COc1cc2nn([C@H]3CC[C@H](O)[C@@H](C)C3)cc2cc1C(=O)Nc1cnc2cccnn12` (single isomer, unassigned) [Example 81], in that order: 5.1 nM and 82 nM.
Regarding `O=C(Nc1cnc2cccnn12)c1cc2cn([C@H]3CC[C@@H](O)CC3)nc2cc1OC1CC1` [Example 85, 6-Cyclopropoxy-2-((1s,4s)-4-hydroxycyclohexyl)-N-(imidazo[1,2-b]pyridazin-3-yl)-2H-indazole-5-carboxamide], the 50% inhibitory concentration (IC50) stood at 0.8 nM in experiment [1] and 50 nM in experiment [2].

The record behind these values is patent US11866405B2, “Substituted indazoles as IRAK4 inhibitors” (AstraZeneca AB, priority 2020, dated 2024).
